{
  "source": "paper PMC11096148",
  "about": "(EJNMMI Radiopharmacy and Chemistry, 2024)",
  "origin": "cited, not measured here",
  "system": "ASGR",
  "parameters": "method as in Stokmaier et al. [2009]",
  "settings": "higher than galactose; ref Stokmaier et al. [2009]; cited from earlier work",
  "data": [
    {"smiles": "CC(=O)N[C@H]1C(O)O[C@H](CO)[C@H](O)[C@@H]1O", "note": "(mixture of isomers) [GalNAc, N-acetylgalactosamine]", "values": [
      {"measurement": "affinity for the ASGR relative to galactose", "result": 10, "unit": "times"}
    ]}
  ]
}
